From publication PMC3726784, “Synthesis, Structure and Antibacterial Activity of Potent DNA Gyrase Inhibitors: N′-Benzoyl-3-(4-Bromophenyl)-1H-Pyrazole-5-Carbohydrazide Derivatives” (PLoS ONE, 2013)
pIC50: −log10 of the molar value. Converted amounts (≈) assume the structure as drawn.

Tests used:
[1] = tested on: Pseudomonas aeruginosa ATCC 27853; assay: In vitro antibacterial assay (MIC, MTT colorimetric method); assay type: cell-based; details: P. aeruginosa ATCC 27853, MH medium, 37°C, 24 h; for MIC: Pseudomonas aeruginosa, ATCC27853, read-out: Minimum inhibitory concentrations, P.aeruginosa
Description: (§1) The activities of synthesized compounds were tested against Bacillus subtilis ATCC 6633, Escherichia coli ATCC 35218, Pseudomonas aeruginosa ATCC 27853 and Staphylococcus aureus ATCC 6538 which may be causal agents of some serious infections in humans using MH medium (Mueller-Hinton medium: casein hydrolysate 17.5 g, soluble starch 1.5 g, beef extract 1000 mL). Also included are the activities of reference compounds kanamycin.
(§2) The antibacterial activity of the synthesized compounds was tested against B. subtilis, E. coli, P. aeruginosa and S. aureus using MH medium (Mueller-Hinton medium: casein hydrolysate 17.5 g, soluble starch 1.5 g, beef extract 1000 mL). The MICs (minimum inhibitory concentrations) of the test compounds were determined by a colorimetric method using the dye MTT (3-(4,5-dimethylth-iazol-2-yl)-2,5-diphenyl tetrazoliumbromide). A stock solution of the synthesized compound (100 µg/mL) in DMSO was prepared and graded quantities of the test compounds were incorporated in specified quantity of sterilized liquid MH medium. A specified quantity of the medium containing the compound was poured into microtitration plates. Suspension of the microorganism was prepared to contain approximately 10^5 cfu/mL and applied to microtitration plates with serially diluted compounds in DMSO to be tested and incubated at 37°C for 24 h. After the MICs were visually determined on each of the microtitration plates, 50 µL of PBS (phosphate buffered saline 0.01 mol/L, pH 7.4, Na2HPO4·12H2O 2.9 g, KH2PO4 0.2 g, NaCl 8.0 g, KCl 0.2 g, distilled water 1000 mL) containing 2 mg of MTT/mL was added to each well. Incubation was continued at room temperature for 4–5 h. The content of each well was removed, and 100 µL of isopropanol containing 5% 1 mol/L HCl was added to extract the dye. After 12 h of incubation at room temperature, the optical density (OD) was measured with a microplate reader at 550 nm.

[2] = tested on: Staphylococcus aureus ATCC 6538; assay: as above; assay type: cell-based; details: S. aureus ATCC 6538, MH medium, 37°C, 24 h; for MIC: Staphylococcus aureus, ATCC6538, read-out: Minimum inhibitory concentrations, S. aureus
Description: as §1, §2

[3] = tested on: Escherichia coli ATCC 35218; assay: as above; assay type: cell-based; details: E. coli ATCC 35218, MH medium, 37°C, 24 h; for MIC: Escherichia coli, ATCC35218, read-out: Minimum inhibitory concentrations, E. coli
Description: as §1, §2

[4] = tested on: Bacillus subtilis ATCC 6633; assay: as above; assay type: cell-based; details: B. subtilis ATCC 6633, MH medium, 37°C; for MIC: Bacillus subtilis, ATCC6633, 24 h, read-out: Minimum inhibitory concentrations, B. subtilis
Description: as §1, §2

B. subtilis DNA gyrase = B. subtilis DNA gyrase (Bacillus subtilis, UniProt P05652); assay: biochemical
Sequence of B. subtilis DNA gyrase (P05652 whole entry): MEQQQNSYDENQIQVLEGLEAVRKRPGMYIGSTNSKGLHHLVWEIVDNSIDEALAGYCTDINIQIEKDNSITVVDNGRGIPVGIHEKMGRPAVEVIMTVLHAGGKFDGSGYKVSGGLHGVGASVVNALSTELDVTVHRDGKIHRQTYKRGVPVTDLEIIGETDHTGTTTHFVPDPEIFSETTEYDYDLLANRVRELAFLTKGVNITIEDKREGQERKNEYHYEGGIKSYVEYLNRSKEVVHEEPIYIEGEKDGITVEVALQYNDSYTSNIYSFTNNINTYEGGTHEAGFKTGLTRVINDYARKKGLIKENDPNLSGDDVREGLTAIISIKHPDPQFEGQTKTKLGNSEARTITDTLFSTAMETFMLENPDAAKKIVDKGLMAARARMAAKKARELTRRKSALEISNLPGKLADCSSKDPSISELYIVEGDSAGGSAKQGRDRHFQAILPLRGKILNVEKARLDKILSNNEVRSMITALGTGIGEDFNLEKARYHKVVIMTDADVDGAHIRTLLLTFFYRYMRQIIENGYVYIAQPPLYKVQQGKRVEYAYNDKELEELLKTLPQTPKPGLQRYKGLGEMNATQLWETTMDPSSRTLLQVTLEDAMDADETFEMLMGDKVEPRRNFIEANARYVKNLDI
Sequence of B. subtilis DNA gyrase (P05653 whole entry, further chain): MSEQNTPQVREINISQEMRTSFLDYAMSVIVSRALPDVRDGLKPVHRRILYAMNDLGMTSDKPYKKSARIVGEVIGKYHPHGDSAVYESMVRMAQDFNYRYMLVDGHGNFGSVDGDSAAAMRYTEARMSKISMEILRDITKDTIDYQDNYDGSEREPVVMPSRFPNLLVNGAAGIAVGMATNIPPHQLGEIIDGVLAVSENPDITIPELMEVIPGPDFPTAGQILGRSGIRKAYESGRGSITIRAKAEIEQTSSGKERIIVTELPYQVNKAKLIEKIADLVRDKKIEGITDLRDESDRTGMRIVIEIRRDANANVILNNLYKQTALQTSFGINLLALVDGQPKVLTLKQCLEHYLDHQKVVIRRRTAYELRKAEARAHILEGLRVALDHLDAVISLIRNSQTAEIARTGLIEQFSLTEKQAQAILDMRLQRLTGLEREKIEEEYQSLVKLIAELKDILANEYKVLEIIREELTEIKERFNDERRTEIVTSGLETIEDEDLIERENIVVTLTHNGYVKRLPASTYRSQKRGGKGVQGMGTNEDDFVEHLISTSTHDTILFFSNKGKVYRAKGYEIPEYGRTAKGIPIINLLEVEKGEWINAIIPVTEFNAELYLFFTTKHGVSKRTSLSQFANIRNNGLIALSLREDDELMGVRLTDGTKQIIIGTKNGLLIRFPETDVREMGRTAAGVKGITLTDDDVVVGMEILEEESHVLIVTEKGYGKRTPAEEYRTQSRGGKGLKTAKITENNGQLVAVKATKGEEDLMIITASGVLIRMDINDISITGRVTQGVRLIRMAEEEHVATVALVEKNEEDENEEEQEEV
Description: (§3) To elucidate the mechanism by which the pyrazole derivatives induce antibacterial activity, the inhibitory activities of selected compounds were examined against DNA gyrase isolated from B. subtilis and S. aureus.
The B. subtilis DNA gyrase were purified by the methods of E. Orr.: Cells were suspended in an equal volume of 25 mM HEPES-KOH (pH 8.0)-100 mM KCl and stored frozen at −70°C. The frozen cell suspension was thawed and diluted with an equal volume of 25 mM HEPES-KOH (pH 8.0)-0.4 M sucrose-20 mM magnesium acetate-1 mM dithiothreitol-5 mM PMSF. All operations were performed at 0–4°C. Lysozyme was added to a final concentration, and the mixture was incubated for 2.5 h. One-third volume of 2 M KCl-1.5% Brij was added, and the incubation was continued for 15 min. The lysate was then centrifuged for 90 min intirotor. The supernatant was adjusted to a KCl concentration of 0.2 M by dilution with 25 mM HEPES-KOH (pH 8.0)-1 mM dithiothreitol-1mMEDTA-0.5 mM pmsf-10% ethylene glycol and applied to a column. The column was washed with starting buffer and eluted successively with buffer containing 20 mM ATP-25 mM magnesium acetate-0.2 M KCI, buffer (2 M KCI), and 5 M urea in buffer (0.2 M KCl).Protein-containing fractions were dialyzed against buffer (0.05 MKCI). Supercoiling and decatenation were carried out by the F. Blanche method.

S. aureus DNA gyrase = target: T1, S. aureus DNA gyrase (Staphylococcus aureus, UniProt P0A0K8); assay: biochemical; details: enzyme purified from S. aureus, supercoiling
T1 construct: purified by the F. Blanche [25] from a crude extract of S. aureus; endogenous in cells
T1 sequence (P0A0K8 whole entry): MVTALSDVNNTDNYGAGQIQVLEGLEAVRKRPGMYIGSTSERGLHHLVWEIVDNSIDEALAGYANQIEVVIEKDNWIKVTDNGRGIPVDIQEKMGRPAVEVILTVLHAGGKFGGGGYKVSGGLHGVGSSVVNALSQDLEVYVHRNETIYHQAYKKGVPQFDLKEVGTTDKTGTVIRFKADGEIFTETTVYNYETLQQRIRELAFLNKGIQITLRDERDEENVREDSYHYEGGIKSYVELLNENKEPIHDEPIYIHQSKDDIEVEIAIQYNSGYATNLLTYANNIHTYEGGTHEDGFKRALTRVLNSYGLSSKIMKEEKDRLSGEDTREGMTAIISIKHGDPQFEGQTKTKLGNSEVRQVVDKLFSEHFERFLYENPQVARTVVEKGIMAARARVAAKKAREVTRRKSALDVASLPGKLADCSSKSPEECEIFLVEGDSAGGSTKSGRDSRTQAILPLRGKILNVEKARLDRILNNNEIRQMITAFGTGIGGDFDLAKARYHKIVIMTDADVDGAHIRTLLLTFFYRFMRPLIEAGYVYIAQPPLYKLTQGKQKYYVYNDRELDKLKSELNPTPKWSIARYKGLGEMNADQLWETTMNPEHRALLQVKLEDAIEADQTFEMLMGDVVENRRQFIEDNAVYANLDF
T1 sequence (P20831 whole entry partner): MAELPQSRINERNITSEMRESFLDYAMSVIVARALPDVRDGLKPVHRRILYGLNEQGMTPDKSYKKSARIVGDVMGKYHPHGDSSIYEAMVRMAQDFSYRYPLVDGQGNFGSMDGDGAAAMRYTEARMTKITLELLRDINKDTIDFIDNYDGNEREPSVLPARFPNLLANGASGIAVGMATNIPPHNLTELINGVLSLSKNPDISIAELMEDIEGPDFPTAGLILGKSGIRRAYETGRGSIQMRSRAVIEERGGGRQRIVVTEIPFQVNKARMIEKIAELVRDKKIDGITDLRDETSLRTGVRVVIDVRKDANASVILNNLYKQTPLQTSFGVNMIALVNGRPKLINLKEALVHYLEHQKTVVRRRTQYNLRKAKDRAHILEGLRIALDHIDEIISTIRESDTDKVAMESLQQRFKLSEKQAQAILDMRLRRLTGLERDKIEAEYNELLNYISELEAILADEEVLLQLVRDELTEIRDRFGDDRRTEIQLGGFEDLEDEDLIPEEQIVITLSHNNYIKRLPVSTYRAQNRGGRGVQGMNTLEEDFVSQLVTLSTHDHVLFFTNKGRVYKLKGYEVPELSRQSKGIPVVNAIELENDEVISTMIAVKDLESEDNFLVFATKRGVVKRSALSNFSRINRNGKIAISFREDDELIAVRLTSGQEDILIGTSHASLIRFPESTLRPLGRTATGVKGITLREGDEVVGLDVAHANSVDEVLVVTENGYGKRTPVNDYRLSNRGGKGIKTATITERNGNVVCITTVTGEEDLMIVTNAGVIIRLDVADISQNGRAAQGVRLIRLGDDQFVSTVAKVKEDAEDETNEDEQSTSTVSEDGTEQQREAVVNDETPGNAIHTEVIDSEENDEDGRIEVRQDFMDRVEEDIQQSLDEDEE
Text: as §3
The S. aureus DNA gyrase were purified by the F. Blanche from a crude extract of S. aureus and cultivated with medium B, which was composed of 10 g of polypeptone, 2 g of yeast extract, 8 g of Na2HPO4, 2 g of KH2PO4, 1.2 g of (NH4)2SO4, 0.2 g of MgSO4, 4 g of glucose perliter of distilled water. Supercoiling and decatenation were performed according to F. B lanche.

Molecule	melting point [°C]	MIC [1] [µg/mL]	MIC [2] [µg/mL]	MIC [3] [µg/mL]	MIC [4] [µg/mL]	pIC50 (B. subtilis DNA gyrase)	pIC50 (S. aureus DNA gyrase)	Minimum inhibitory concentrations, P.aeruginosa [1] [µg/mL]	Minimum inhibitory concentrations, S. aureus [2] [µg/mL]	Minimum inhibitory concentrations, E. coli [3] [µg/mL]	Minimum inhibitory concentrations, B. subtilis ([4]; 24 h) [µg/mL]
O=C(NNC(=O)c1cc(-c2ccc(Br)cc2)n[nH]1)c1ccc(F)cc1 [3a, 3-(4-Bromophenyl)-N'-(4-fluorobenzoyl)-1H-pyrazole-5-carbohydrazide]	284 to 287	50 (≈ 124 µM)	15 (≈ 37.2 µM)	> 50	12.5 (≈ 31.1 µM)						
O=C(NNC(=O)c1cc(-c2ccc(Br)cc2)n[nH]1)c1ccc(Cl)cc1 [3b, 3-(4-Bromophenyl)-N'-(4-chlorobenzoyl)-1H-pyrazole-5-carbohydrazide]	280 to 283	50 (≈ 119 µM)	15 (≈ 35.7 µM)	> 50	17.1 (≈ 40.8 µM)						
O=C(NNC(=O)c1cc(-c2ccc(Br)cc2)n[nH]1)c1ccc(Br)cc1 [3c, N'-(4-Bromobenzoyl)-3-(4-bromophenyl)-1H-pyrazole-5-carbohydrazide]	297 to 298	50 (≈ 108 µM)	13.8 (≈ 29.7 µM)	> 50	10.2 (≈ 22 µM)						
Cc1ccc(C(=O)NNC(=O)c2cc(-c3ccc(Br)cc3)n[nH]2)cc1 [3d, 3-(4-Bromophenyl)-N'-(4-methylbenzoyl)-1H-pyrazole-5-carbohydrazide]	270 to 272	12.5 (≈ 31.3 µM)	3.66 (≈ 9.17 µM)	50 (≈ 125 µM)		5.19	5.43				
COc1ccc(C(=O)NNC(=O)c2cc(-c3ccc(Br)cc3)n[nH]2)cc1 [3e, 3-(4-Bromophenyl)-N'-(4-methoxybenzoyl)-1H-pyrazole-5-carbohydrazide]	281 to 282	12.5 (≈ 30.1 µM)	6.68 (≈ 16.1 µM)	50 (≈ 120 µM)	10.1 (≈ 24.4 µM)	4.53	5.09				
O=C(NNC(=O)c1cc(-c2ccc(Br)cc2)n[nH]1)c1ccc([N+](=O)[O-])cc1 [3f, 3-(4-Bromophenyl)-N'-(4-nitrobenzoyl)-1H-pyrazole-5-carbohydrazide]	255 to 257	> 50	18 (≈ 41.9 µM)	> 50	25 (≈ 58.1 µM)						
O=C(NNC(=O)c1cc(-c2ccc(Br)cc2)n[nH]1)c1cccc(F)c1 [3g, 3-(4-Bromophenyl)-N'-(3-fluorobenzoyl)-1H-pyrazole-5-carbohydrazide]	278 to 280	50 (≈ 124 µM)	13 (≈ 32.2 µM)	> 50	25 (≈ 62 µM)						
O=C(NNC(=O)c1cc(-c2ccc(Br)cc2)n[nH]1)c1cccc(Cl)c1 [3h, 3-(4-Bromophenyl)-N'-(3-chlorobenzoyl)-1H-pyrazole-5-carbohydrazide]	246 to 248	50 (≈ 119 µM)	12.6 (≈ 29.9 µM)	> 50	6.25 (≈ 14.9 µM)						
O=C(NNC(=O)c1cc(-c2cccc(Br)c2)n[nH]1)c1ccc(Br)cc1 [3i, N'-(4-Bromobenzoyl)-3-(3-bromophenyl)-1H-pyrazole-5-carbohydrazide]	229 to 231	50 (≈ 108 µM)	12.1 (≈ 26.1 µM)	> 50	12.6 (≈ 27.1 µM)						
Cc1cccc(C(=O)NNC(=O)c2cc(-c3ccc(Br)cc3)n[nH]2)c1 [3j, 3-(4-Bromophenyl)-N'-(3-methylbenzoyl)-1H-pyrazole-5-carbohydrazide]	287 to 288	12.5 (≈ 31.3 µM)	1.12 (≈ 2.81 µM)	50 (≈ 125 µM)		5.09	6.49				
COc1cccc(C(=O)NNC(=O)c2cc(-c3ccc(Br)cc3)n[nH]2)c1 [3k, 3-(4-Bromophenyl)-N'-(3-methoxybenzoyl)-1H-pyrazole-5-carbohydrazide]	251 to 253	12.5 (≈ 30.1 µM)	0.78 (≈ 1.88 µM)	50 (≈ 120 µM)		6.22	6.44				
O=C(NNC(=O)c1cc(-c2ccc(Br)cc2)n[nH]1)c1cccc([N+](=O)[O-])c1 [3l, 3-(4-Bromophenyl)-N'-(3-nitrobenzoyl)-1H-pyrazole-5-carbohydrazide]	275 to 276	50 (≈ 116 µM)	10.8 (≈ 25.1 µM)	> 50	10.8 (≈ 25.1 µM)						
O=C(NNC(=O)c1ccccc1F)c1cc(-c2ccc(Br)cc2)n[nH]1 [3m, 3-(4-Bromophenyl)-N'-(2-fluorobenzoyl)-1H-pyrazole-5-carbohydrazide]	297 to 298	> 50	22.1 (≈ 54.8 µM)	> 50	25 (≈ 62 µM)						
O=C(NNC(=O)c1ccccc1Cl)c1cc(-c2ccc(Br)cc2)n[nH]1 [3n, 3-(4-Bromophenyl)-N'-(2-chlorobenzoyl)-1H-pyrazole-5-carbohydrazide]	280 to 281	> 50	17 (≈ 40.4 µM)	> 50	12.2 (≈ 29.2 µM)						
O=C(NNC(=O)c1cc(-c2ccccc2Br)n[nH]1)c1ccc(Br)cc1 [3o, N'-(4-Bromobenzoyl)-3-(2-bromophenyl)-1H-pyrazole-5-carbohydrazide]	281 to 283	> 50	21 (≈ 45.2 µM)	> 50	23.1 (≈ 49.8 µM)						
Cc1ccccc1C(=O)NNC(=O)c1cc(-c2ccc(Br)cc2)n[nH]1 [3p, 3-(4-Bromophenyl)-N'-(2-methylbenzoyl)-1H-pyrazole-5-carbohydrazide]	292 to 294	12.5 (≈ 31.3 µM)	8.08 (≈ 20.2 µM)	50 (≈ 125 µM)	12.2 (≈ 30.4 µM)	5.90	4.88				
COc1ccccc1C(=O)NNC(=O)c1cc(-c2ccc(Br)cc2)n[nH]1 [3q, 3-(4-Bromophenyl)-N'-(2-methoxybenzoyl)-1H-pyrazole-5-carbohydrazide]	287 to 290	> 50	18.7 (≈ 45.1 µM)	> 50	20.6 (≈ 49.6 µM)						
O=C(NNC(=O)c1ccccc1[N+](=O)[O-])c1cc(-c2ccc(Br)cc2)n[nH]1 [3r, 3-(4-Bromophenyl)-N'-(2-nitrobenzoyl)-1H-pyrazole-5-carbohydrazide]	266 to 267	> 50	25 (≈ 58.1 µM)	> 50	50 (≈ 116 µM)						
O=C(NNC(=O)c1cc(-c2ccc(Br)cc2)n[nH]1)c1ccccc1 [3s, N'-Benzoyl-3-(4-bromophenyl)-1H-pyrazole-5-carbohydrazide]	288 to 290	12.5 (≈ 32.4 µM)	10.6 (≈ 27.4 µM)	12.5 (≈ 32.4 µM)	10.6 (≈ 27.4 µM)	5.59	5.07				
Penicillin [reference compound]								6.25	1.56	6.25	1.56
